Measurements from patent publication US20150196507A1, “CONTROL OF MILK PRODUCTION AND MAMMARY INVOLUTION” (Amelgo, LLC, priority 2009, published 2015).

Key:
[1] = system: multiparous Holstein cows; experiment: Intramammary infusion at dry-off in Holstein cows (milk yield, milk composition, plasma lactose); assay type: in vivo, cow; details: for milk yield decline: day one following initiation of treatments, 5 mg in 5 ml carrier per quarter, control down 7.5 kg; for drop in amount of milk versus cows not receiving any infusion: after the first of three daily infusions, FIG. 6
Method: In a set of experiments, forty-five multiparous Holstein cows milked three times daily and producing at least 20 kg/day were randomly assigned to once a day milking and one of three intramammary treatments in each quarter for three days. A control group of fifteen cows received 5 ml of a carrier of 9:1 sterile water and oil via infusion. […] The third group of fifteen cows received a treatment of 5 ml the carrier containing 5 mg of the precursor for serotonin synthesis (5-HTP) via infusion.
The milk yield decline was greater for the second group (down 9.5 kg) and the third group (down 10.0 kg) than that of the first group (down 7.5 kg) on day one following the initiation of treatments (P<0.01).
The amount of milk dropped close to 10% for those cows receiving an infusion of 5-HTP versus cows not receiving any infusion.
Milk lactose, protein, and fat percentage were not affected by treatments, but the milk sodium to potassium ratio increased to 2.8 in the second group on day two as compared to 1.44 in the first group and 1.78 in the third group, (P<0.01).

[2] = system: cultures of mammary tissues taken from a lactating mouse; experiment: Trans-epithelial electrical resistance (TEER) of mouse mammary tissue cultures; assay type: cell-based; design: dose or concentration left out as unconfirmed; details: fluoxetine, measured at 48 hours
[3] = system: primary human breast epithelial cells; experiment: TEER of human mammary cultures; assay type: cell-based; details: for TEER change (FIG. 3): combination read at 36 hours
Description: FIG. 3 is a graphic illustration of a similar experiment performed on mammary gland cultures biopsied from primary human breast epithelial cells.

Structure (SMILES)	milk yield decline ([1]; P<0.01) [kg]	drop in amount of milk versus cows not receiving any infusion ([1]; day two) [%]	milk sodium to potassium ratio ([1]; day two, first (control) group 1.44, P<0.01)	TEER change (FIG. 2) [2]	reduction in TEER ([3]; FIG. 3) [%]	TEER change (FIG. 3) [3]	plasma lactose increase compared to the other two groups ([1]; day 1 post-infusion, P<0.001)
N[C@@H](Cc1c[nH]c2ccc(O)cc12)C(=O)O [5-HTP, 5-hydroxytryptophan]	10.0	~10	1.78	–	–	–	–
CCN[C@@H](C)Cc1cccc(C(F)(F)F)c1 [dexfenfluramine]	–	–	–	decrease in TEER similar to that of the combination of phenelzine and fluoxetine	50	–	–
CNCCC(Oc1ccc(C(F)(F)F)cc1)c1ccccc1 (centres unmarked) [fluoxetine]	9.5	~31	–	–	–	did not change TEER	increased two-fold
NNCCc1ccccc1 [phenelzine]	–	–	–	small but significant increase in TEER	–	caused a decrease	–
